Measured values reported in US20240158446A1, “CYCLIC COMPOUND HAVING SELECTIVE INHIBITORY ACTION ON KRAS OVER HRAS AND NRAS” (CHUGAI SEIYAKU KABUSHIKI KAISHA, priority 2021, published 2024).
*1 amine or outer side, *2 acyl side, *3 side chain or, on linkers, in order; H or OH if unused. Where a SMILES comes first, the peptide text is derived from it. Bridges are numbered along the chain shown (N, C = ends). [ ]: non-standard residue; d: D form. The star is where a group is joined. hPhe(3-Cl-4-CF3) = N[C@@H](CCc1ccc(C(F)(F)F)c(Cl)c1)C(=O)O; NPrPhe(4-CF3) = CCCN[C@@H](Cc1ccc(C(F)(F)F)cc1)C(=O)O; X6 = CCCN([C@@H](COCCC(C)C)C(=O)[*:2])[*:1]; NMeGly(cPent) = CN[C@H](C(=O)O)C1CCCC1; NMeI = CC[C@H](C)[C@H](NC)C(=O)O; NMeD = CN[C@@H](CC(=O)O)C(=O)O; NMeL = CN[C@@H](CC(C)C)C(=O)O; Morpholide = C1CN(*)CCO1; Ac5c = NC1(C(=O)O)CCCC1; Ac4c = NC1(C(=O)O)CCC1; Sar = CNCC(=O)O

Experiments:
[1] = biological target: GDP-bound KRAS wild-type protein (Homo sapiens, UniProt P01116); experiment: Binding to KRAS by surface plasmon resonance (SPR), Single Cycle Kinetics; conditions: SPR, Single Cycle Kinetics, GDP-bound KRAS wild-type protein; read-out: KRAS KD
[2] = biological target: GDP-bound NRAS wild-type protein (Homo sapiens, UniProt P01111); experiment: Binding to NRAS by surface plasmon resonance (SPR), Single Cycle Kinetics; conditions: ratio of KD for GDP-bound NRAS wild-type protein to KD for KRAS, SPR
[3] = biological target: GDP-bound HRAS wild-type protein (Homo sapiens, UniProt P01112); experiment: Binding to HRAS by surface plasmon resonance (SPR), Single Cycle Kinetics; conditions: ratio of KD for GDP-bound HRAS wild-type protein to KD for KRAS, SPR
[4] = test system: human lung cancer strain NCI-H441; experiment: cells; conditions: NCI-H441, 96 h, read-out: NCI-H441 IC50 (nM), NCI-H441 cell proliferation, 4 days, CellTiter-Glo;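 further: cell proliferation inhibition after four days measured by CellTiter-Glo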

Sequence of GDP-bound HRAS wild-type protein (P01112 whole entry): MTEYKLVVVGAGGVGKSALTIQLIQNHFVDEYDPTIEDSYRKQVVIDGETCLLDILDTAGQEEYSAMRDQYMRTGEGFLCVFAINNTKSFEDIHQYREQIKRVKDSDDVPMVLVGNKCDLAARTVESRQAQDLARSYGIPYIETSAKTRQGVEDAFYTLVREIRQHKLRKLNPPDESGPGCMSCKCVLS
Sequence of GDP-bound NRAS wild-type protein (P01111 whole entry): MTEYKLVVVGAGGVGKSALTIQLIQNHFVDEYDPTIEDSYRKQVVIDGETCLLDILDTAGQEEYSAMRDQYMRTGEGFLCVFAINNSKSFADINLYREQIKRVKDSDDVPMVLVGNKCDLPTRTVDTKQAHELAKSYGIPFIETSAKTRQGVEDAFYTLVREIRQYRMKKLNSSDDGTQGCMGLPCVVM
Sequence of GDP-bound KRAS wild-type protein (P01116 whole entry): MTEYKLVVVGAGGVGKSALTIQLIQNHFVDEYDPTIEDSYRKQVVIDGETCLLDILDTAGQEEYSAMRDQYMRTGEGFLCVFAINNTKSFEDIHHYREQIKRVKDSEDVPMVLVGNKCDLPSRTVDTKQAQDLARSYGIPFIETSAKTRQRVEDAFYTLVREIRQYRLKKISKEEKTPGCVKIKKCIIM

Kd [1] [nM] | IC50 [4] [nM] | Compound | NRAS/KRAS (KD ratio) [2] | HRAS/KRAS (KD ratio) [3]
0.25 | 22.9 | CCO[C@@H]1C[C@H]2C(=O)NC3(CC(F)(F)C3)C(=O)N(C)[C@@H](C3CCCC3)C(=O)N(C)[C@H](CC)CC(=O)N(C)[C@@H](CC)C(=O)N[C@@H]([C@@H](C)CC)C(=O)N(C)CC(=O)N(C)[C@H]3C/C=C\CCN(C3=O)[C@@H](Cc3ccc(C(F)(F)F)cc3)C(=O)N(C)CC(=O)N[C@@H](CCc3cc(F)c(C(F)(F)F)c(F)c3)C(=O)N2C1 [PP1627] | A (a compound having 10 or more and less than 20 is denoted as A) | A (a compound having 10 or more and less than 20 is denoted as A)
0.12 | 2.8 | CCC[C@H]1C(=O)N[C@@H]([C@@H](C)CC)C(=O)N(C)CC(=O)N(C)[C@H]2C/C=C\CCN(C2=O)[C@@H](Cc2ccc(C(F)(F)F)cc2)C(=O)N(C)CC(=O)N[C@@H](CCc2cc(F)c(C(F)(F)F)c(F)c2)C(=O)N2C[C@H](OCC)C[C@H]2C(=O)NC2(CC(C)(C)C2)C(=O)N(C)[C@@H](C2CCCC2)C(=O)N(C)[C@H](C(=O)N(C)CC)CC(=O)N1C [PP1646] | A (a compound having 10 or more and less than 20 is denoted as A) | A (a compound having 10 or more and less than 20 is denoted as A)
0.11 | 9.2 | CCC[C@H]1C(=O)N[C@@H]([C@@H](C)CC)C(=O)N(C)CC(=O)N(C)[C@H]2C/C=C\CCN(C2=O)[C@@H](Cc2ccc(C(F)(F)F)cc2)C(=O)N(C)CC(=O)N[C@@H](CCc2cc(F)c(C(F)(F)F)c(F)c2)C(=O)N2C[C@H](OCC)C[C@H]2C(=O)NC2(CC(C)(C)C2)C(=O)N(C)[C@@H](C2CCCC2)C(=O)N(C)[C@H](C(=O)N2CCC2)CC(=O)N1C [PP1943] | A (a compound having 10 or more and less than 20 is denoted as A) | B (a compound having 3 or more and less than 10 is denoted as B)
0.29 | 2.6 | CCC[C@H]1C(=O)N[C@@H]([C@@H](C)CC)C(=O)N(C)CC(=O)N(C)[C@H]2C/C=C\CCN(C2=O)[C@@H](Cc2ccc(C)cc2)C(=O)N(C)CC(=O)N[C@@H](CCc2ccc(C(F)(F)F)c(OC)c2)C(=O)N2C[C@H](C)C[C@H]2C(=O)NC2(CC(C)(C)C2)C(=O)N(C)[C@@H](C2CCCC2)C(=O)N(C)[C@H](C(=O)N(C)CC)CC(=O)N1C [PP1891] | A (a compound having 10 or more and less than 20 is denoted as A) | A (a compound having 10 or more and less than 20 is denoted as A)
0.36 | 17.4 | CCCN1C(=O)CN(C)C(=O)CN(C)C(=O)[C@H]([C@@H](C)CC)NC(=O)[C@H](CC(C)C)N(C)C(=O)C[C@@H](C(=O)N2CCOCC2)N(C)C(=O)[C@H]([C@@H](C)CC)N(C)C(=O)C2(CCCC2)NC(=O)[C@@H]2CCCN2C(=O)[C@H](CCc2ccc(C(F)(F)F)c(Cl)c2)NC(=O)CN(C)C(=O)[C@@H]1Cc1ccc(C(F)(F)F)cc1 [PP1926] ([NMeL]I[Sar][Sar][NPrPhe(4-CF3)][Sar][hPhe(3-Cl-4-CF3)]P[Ac5c][NMeI][NMeD]-Morpholide; lactam N-11) | B (a compound having 3 or more and less than 10 is denoted as B) | B (a compound having 3 or more and less than 10 is denoted as B)
0.2 | 23 | CC[C@H](C)[C@@H]1NC(=O)[C@H](CC)N(C)C(=O)C[C@@H](C(=O)N(C)CC)N(C)C(=O)[C@H](C2CCCC2)N(C)C(=O)C2(CC(C)(C)C2)NC(=O)[C@@H]2C[C@@H](C)CN2C(=O)[C@H](CCc2ccc(C(F)(F)F)c(Cl)c2)NC(=O)CN(C)C(=O)[C@H](Cc2ccc(C)cc2)N2CC/C=C\C[C@@H](C2=O)N(C)C(=O)CN(C)C1=O [PP1876] | A (a compound having 10 or more and less than 20 is denoted as A) | A (a compound having 10 or more and less than 20 is denoted as A)
0.06 | 11 | CCCN(C)C(=O)[C@@H]1CC(=O)N(C)[C@@H](COCC)C(=O)N[C@@H]([C@@H](C)CC)C(=O)N(C)CC(=O)N(C)[C@H]2C/C=C\CCN(C2=O)[C@@H](Cc2ccc(C(F)(F)F)cc2)C(=O)N(C)CC(=O)N[C@@H](CCc2cc(F)c(C(F)(F)F)c(F)c2)C(=O)N2C[C@H](OCC)C[C@H]2C(=O)NC2(CCC2)C(=O)N(C)[C@@H](C2CCCC2)C(=O)N1C [PP1988] | A (a compound having 10 or more and less than 20 is denoted as A) | A (a compound having 10 or more and less than 20 is denoted as A)
0.17 | 4.4 | CCCN(C)C(=O)[C@@H]1CC(=O)N(C)[C@@H](CC(F)(F)F)C(=O)N[C@@H]([C@@H](C)CC)C(=O)N(C)CC(=O)N(C)[C@H]2C/C=C\CCN(C2=O)[C@@H](Cc2ccc(C(F)(F)F)cc2)C(=O)N(C)CC(=O)N[C@@H](CCc2cc(F)c(C(F)(F)F)c(F)c2)C(=O)N2C[C@H](OCC)C[C@H]2C(=O)NC2(CC(F)(F)C2)C(=O)N(C)[C@@H](C2CCCC2)C(=O)N1C [PP1734] | A (a compound having 10 or more and less than 20 is denoted as A) | A (a compound having 10 or more and less than 20 is denoted as A)
0.055 | 7.8 | CCCO[C@H](C)[C@@H]1NC(=O)[C@H](CC(C)C)N(C)C(=O)C[C@@H](C(=O)N(C)C)N(C)C(=O)[C@H](C2CCCC2)N(C)C(=O)C2(CC(C)(C)C2)NC(=O)[C@@H]2C[C@@H](OCC)CN2C(=O)[C@H](CCc2cc(F)c(C(F)(F)F)c(F)c2)NC(=O)CN(C)C(=O)[C@H](Cc2ccc(C(F)(F)F)cc2)N2CC/C=C\C[C@@H](C2=O)N(C)C(=O)CN(C)C1=O [PP1921] | A (a compound having 10 or more and less than 20 is denoted as A) | A (a compound having 10 or more and less than 20 is denoted as A)
0.047 | 2.2 | CCO[C@@H]1C[C@H]2C(=O)NC3(CC(C)(C)C3)C(=O)N(C)[C@@H](C3CCCC3)C(=O)N(C)[C@H](C(=O)N(C)C)CC(=O)N(C)[C@@H](CC(C)C)C(=O)N[C@@H]([C@@H](C)CC)C(=O)N(C)CC(=O)N(C)[C@H]3C/C=C\CCN(C3=O)[C@@H](Cc3ccc(C(F)(F)F)cc3)C(=O)N(C)CC(=O)N[C@@H](CCc3ccc(C(F)(F)F)c(Cl)c3)C(=O)N2C1 [PP1751] | A (a compound having 10 or more and less than 20 is denoted as A) | A (a compound having 10 or more and less than 20 is denoted as A)
0.099 | 13.1 | CCC[C@H]1C(=O)N[C@@H]([C@@H](C)CC)C(=O)N(C)CC(=O)N(C)[C@H]2C/C=C\CCN(C2=O)[C@@H](Cc2ccc(C)cc2)C(=O)N(C)CC(=O)N[C@@H](CCc2ccc(C(F)(F)F)c(OC)c2)C(=O)N2C[C@H](OCC)C[C@H]2C(=O)NC2(CCC2)C(=O)N(C)[C@@H](C2CCCC2)C(=O)N(C)[C@H](C(=O)N(C)C)CC(=O)N1C [PP1871] | A (a compound having 10 or more and less than 20 is denoted as A) | A (a compound having 10 or more and less than 20 is denoted as A)
0.47 | 20.4 | CCCN1C(=O)CN(C)C(=O)CN(C)C(=O)[C@H]([C@@H](C)CC)NC(=O)[C@H](CC(C)C)N(C)C(=O)C[C@@H](C(=O)N2CCOCC2)N(C)C(=O)[C@H](C2CCCC2)N(C)C(=O)C2(CCC2)NC(=O)[C@@H]2CCCN2C(=O)[C@H](CCc2ccc(C(F)(F)F)c(Cl)c2)NC(=O)CN(C)C(=O)[C@@H]1COCCC(C)C [PP1817] ([NMeL]I[Sar][Sar][X6][Sar][hPhe(3-Cl-4-CF3)]P[Ac4c][NMeGly(cPent)][NMeD]-Morpholide; lactam N-11) | C (A compound having a KD ratio of 0.1 or more and less than 3 is denoted as C) | C (A compound having a KD ratio of 0.1 or more and less than 3 is denoted as C)
1.3 | 28 | CCO[C@@H]1C[C@H]2C(=O)NC3(CC(C)(C)C3)C(=O)N(C)[C@@H](C3CCCC3)C(=O)N3CCC[C@@H]3CC(=O)N(C)[C@@H](CC3CC3)C(=O)N[C@@H]([C@@H](C)CC)C(=O)N(C)CC(=O)N(C)[C@H]3C/C=C\CCN(C3=O)[C@@H](Cc3ccc(C(F)(F)F)cc3)C(=O)N(C)CC(=O)N[C@@H](CCc3cc(F)c(C(F)(F)F)c(F)c3)C(=O)N2C1 [PP1611] | B (a compound having 3 or more and less than 10 is denoted as B) | B (a compound having 3 or more and less than 10 is denoted as B)
0.085 | 5.8 | CCO[C@@H]1C[C@H]2C(=O)NC3(CC(C)(C)C3)C(=O)N(C)[C@@H](C3CCCC3)C(=O)N(C)[C@H](C(=O)N(C)C)CC(=O)N(C)[C@@H](CC3CCC3)C(=O)N[C@@H]([C@@H](C)CC)C(=O)N(C)CC(=O)N(C)[C@H]3C/C=C\CCN(C3=O)[C@@H](Cc3ccc(C(F)(F)F)cc3)C(=O)N(C)CC(=O)N[C@@H](CCc3ccc(C(F)(F)F)c(Cl)c3)C(=O)N2C1 [PP1752] | A (a compound having 10 or more and less than 20 is denoted as A) | A (a compound having 10 or more and less than 20 is denoted as A)
0.051 | 2.4 | CC[C@H](C)[C@@H]1NC(=O)[C@H](COC)N(C)C(=O)C[C@@H](C(=O)N(C)C)N(C)C(=O)[C@H](C2CCCC2)N(C)C(=O)C2(CC(C)(C)C2)NC(=O)[C@@H]2CC(F)(F)CN2C(=O)[C@H](CCc2cc(F)c(C(F)(F)F)c(F)c2)NC(=O)CN(C)C(=O)[C@H](Cc2ccc(C(F)(F)F)cc2)N2CC/C=C\C[C@@H](C2=O)N(C)C(=O)CN(C)C1=O [PP1717] | A (a compound having 10 or more and less than 20 is denoted as A) | A (a compound having 10 or more and less than 20 is denoted as A)
